Data on 9 molecules can be found in US6720142B1, “Method of determining evolutionary potential of mutant resistance genes and use thereof to screen for drug efficacy” (priority 1999, dated 2004).

The test system of assay [1] is E. coli DH5α-E containing multiply mutated ampC. Briefly: MIC of population of E. coli host cells containing multiply mutated (DNA-shuffled) ampC. It counts as cell-based. The following applies: Escherichia coli; lowest drug concentration that completely inhibited growth; overnight at 37° C., MH-I broth, 48-well plates, shuffled ampC library in DH5α-E. Here is the method: E. coli host cells prepared according to Example 4 were diluted into 100 ml MuellerHinton-IPTG (MH-T) broth. Duplicate samples of 10^0, 10^1, and 10^2 dilutions were spread onto L(tet) plates to estimate total transformants, and duplicate 10^0 and 10^1 samples were spread onto MH-I(ampicillin) plates to estimate the number of Amp^R transformants. 10 mg ampicillin was added to each culture using 1 ml of a 10 mg/ml ampicillin solution. The culture was allowed to stand overnight at 37° C. without shaking.
Next, the minimum inhibitory concentration of a number of drug was determined. An estimate of viable cells was calculated by assuming that an A600 of 1.0 is equivalent to 1.9×10^8 per ml for DH5α-E cells. A sample of the overnight culture was diluted into 70 ml of MH-I so that the number of cells per ml 10^5 per ml. The resulting suspension was used to determine MIC in 48-well microtiter plates.
(§1) Serial dilutions were prepared by first determining the volume of drug solution to be added to the first well in each row to achieve the desired concentration of drug in a total volume of 1 ml. The MIC was determined for the following drugs: ampicillin, pipericillin, temocillin, cephalothin, cefuroxime, cefotaxime, ceftazidime, cefepime, imipenem, meropenem, and aztreonam. To the first well in each row 1 ml of the diluted cell suspension was added, and to all remaining wells per row 0.5 ml of the diluted cell suspension was added. For each row, the predetermined volume of a drug solution was added to the first well per row, mixed well, and then 0.5 ml of the mixed solution was transferred to the next well, and so on until the serial dilutions were completed. From the last well in each row, 0.5 ml was removed so that all well contained 0.5 ml of the drug-containing culture. Plates were sealed with BreatheEasy film (Diversified Biotech, Boston, Mass.) and maintained overnight at 37° C. with shaking. […] The MICs, in μg/ml, for each of the above-identified drugs was as follows: ampicillin, >1024; pipericillin, >1024; temocillin, 32: cephalothin, 1024; cefuroxime, 512; cefotaxime, 8; ceftazidime, 64; cefepime, 1; imipenem, 0.25; meropenem, 0.03125; and aztreonam, 16.

For assay [2], the system named is E. coli JM109 carrying the plasmid vector pACSE without an ampC gene. Description: MIC test, plasmid vector pACSE without an ampC gene. The following applies: pACSE (vector, no ampC). It counts as cell-based. Here is the method: (§2) Basically, a MIC determination is carried out by preparing serial dilutions of drugs in a micro-well plate and measuring host cell growth within those wells. The MIC for a particular set of host cells containing a mutant resistance gene is determined by examining the wells to locate the lowest concentration of drug which inhibited cell growth. This is capable of discriminating generally between those host cells containing mutant resistance genes conferring different degrees of resistance against the particular drug.
as §1
Plasmids were prepared from those isolates and were transformed into E. coli strain JM109. MICs conferred by each of those plasmids was determined as in Example 5.
(§3) MICs of three of the plasmids containing the wildtype AmpC gene into which the above mutations have been introduced have been determined, as shown in Table 2 below.

In assay [3] the test system is E. coli JM109 carrying pAmpC0 (wildtype E. coli K12 ampC gene). Briefly: MIC test, plasmid pAmpC0 (wildtype ampC gene). The following applies: for MIC: pAmpC0 (wildtype ampC); for resistance conferred by plasmid pAmpC0: wildtype ampC gene, Table 1 boxed cells. It counts as cell-based. Here is the method:
as §2
All experiments utilizing ampicillin resistance will be directed toward the cloned and regulated ampC gene (or mutant ampC gene) in such a way that the regulation, i.e., the amount of enzyme produced per cell, will be held constant throughout the experiments and all of the “improvement” in resistance will come from improvement in β-lactamase activity.
as §1, with “16. […]” for “16.”

Assay [4] has as its system host cells carrying pAmpC0-305 (AmpC T121 to S). Briefly: MIC test, single-mutation plasmid pAmpC0-305. In kind it is cell-based, E. coli. The following applies: for MIC: pAmpC0-305, A663 to G, T121 to S. On the procedure:
as §2, §1
(§4) To determine the phenotypic effects of each of the amino acid substitutions, the A907C, A587G, A663G, T869G, and A884G mutations are being individually introduced into pAmpC0 by site-directed mutagenesis. It is expected that the A907C mutation will result in MICs that are identical to pAmpC13A. The A587G, A663G, and As84G mutations will also be introduced individually into AmpC13 to determine whether the combination of any of those mutations with A907C will result in increased resistance levels.
as §3

The test system of assay [5] is host cells carrying PAmpC0-307 (AmpC L290 to R). Briefly: MIC test, single-mutation plasmid PAmpC0-307. The following applies: for MIC: PAmpC0-307, T869 to G, L290 to R. In kind it is cell-based, E. coli. Here is the method: as §2, §1, §4, §3
Assay [6] has as its system host cells carrying PAmpC0-308 (AmpC N295 to S). Description: MIC test, single-mutation plasmid PAmpC0-308. In kind it is cell-based, E. coli. The following applies: A644 to G.
Assay [7] relates to E. coli carrying pAmpC13A (mutant ampC, S303R). Briefly: MIC test, mutant plasmid pAmpC13A. It counts as cell-based. Here is the method:
(§5) Serial dilutions were prepared by first determining the volume of drug solution to be added to the first well in each row to achieve the desired concentration of drug in a total volume of 1 ml. The MIC was determined for the following drugs: ampicillin, pipericillin, temocillin, cephalothin, cefuroxime, cefotaxime, ceftazidime, cefepime, imipenem, meropenem, and aztreonam. To the first well in each row 1 ml of the diluted cell suspension was added, and to all remaining wells per row 0.5 ml of the diluted cell suspension was added. For each row, the predetermined volume of a drug solution was added to the first well per row, mixed well, and then 0.5 ml of the mixed solution was transferred to the next well, and so on until the serial dilutions were completed. From the last well in each row, 0.5 ml was removed so that all well contained 0.5 ml of the drug-containing culture. Plates were sealed with BreatheEasy film (Diversified Biotech, Boston, Mass.) and maintained overnight at 37° C. with shaking.
(§6) Plasmids were prepared from those isolates and were transformed into E. coli strain JM109.

Assay [8] has as its system E. coli carrying pAmpC21B (mutant ampC). Briefly: MIC test, mutant plasmid pAmpC21B. The following applies: after two cycles of mutagenesis and selection. It counts as cell-based. On the procedure: as §5, §6

Values after ≈ are worked out from the molar mass of the structure shown.

As for `CO[C@@]1(NC(=O)C(C(=O)O)c2ccsc2)C(=O)N2[C@@H](C(=O)O)C(C)(C)S[C@@H]21` (stereo partly drawn) [Temocillin, temocillin], the MIC (in general, the least concentration at which growth counts as inhibited) in assay [1] turned out to be 32 µg/mL; in assay [2], 16 µg/mL (≈ 38.6 µM); in assay [3], 16 µg/mL (≈ 38.6 µM); in assay [4], 16 µg/mL; in assay [5] it was 8 µg/mL; in assay [6], 8 µg/mL (≈ 19.3 µM). Besides, in assay [3], the “resistance conferred by plasmid pAmpC0” value was “not”. Further, in assay [7], the “clinical resistance conferred by pAmpC13A” value is given as “clinical resistance”. Besides, the “improved resistance conferred by pAmpC13A” value in assay [7] is “improved resistance”.

For the molecule `CC(C)(O/N=C(\C(=O)N[C@@H]1C(=O)N2C(C(=O)[O-])=C(C[n+]3ccccc3)CS[C@H]12)c1csc(N)n1)C(=O)O` [Ceftazidime, ceftazidime], the MIC turned out to be 64 µg/mL in assay [1]; 0.5 µg/mL (≈ 0.915 µM) in assay [2]; 2 µg/mL (≈ 3.66 µM) in assay [3]; 2 µg/mL in assay [4]; 1 µg/mL in assay [5]; 2 µg/mL (≈ 3.66 µM) in assay [6]. Also, the “resistance conferred by plasmid pAmpC0” value in assay [3] was “not”. Further, the “clinical resistance conferred by pAmpC13A” value in assay [7] is “clinical resistance”. Moreover, the “improved resistance conferred by pAmpC13A” value in assay [7] is recorded as “improved resistance”. In assay [8], the “clinical resistance conferred by pAmpC21B” value is “clinical resistance”.

Turning to `CC1(C)S[C@@H]2[C@H](NC(=O)[C@H](N)c3ccccc3)C(=O)N2[C@H]1C(=O)O` [Ampicillin, ampicillin], the MIC in assay [1] is above 1020 µg/mL; in assay [2], 2 µg/mL (≈ 5.72 µM); in assay [3], 128 µg/mL (≈ 366 µM); in assay [4] it was 128 µg/mL; in assay [5], 128 µg/mL; in assay [6] it was 64 µg/mL (≈ 183 µM). Further, in assay [3], the “resistance conferred by plasmid pAmpC0” value is recorded as “confers resistance”. The “clinical resistance conferred by pAmpC13A” value in assay [7] is “clinical resistance”. For the same molecule, the “improved resistance conferred by pAmpC13A” value in assay [7] was “improved resistance”. In addition, the “clinical resistance conferred by pAmpC21B” value in assay [8] is “clinical resistance”.

In the case of `CO/N=C(\C(=O)N[C@@H]1C(=O)N2C(C(=O)O)=C(COC(C)=O)CS[C@H]12)c1csc(N)n1` [Cefotaxime, cefotaxime], the MIC in assay [1] was 8 µg/mL; in assay [2] it was 0.0625 µg/mL (≈ 0.137 µM); in assay [3], 1 µg/mL (≈ 2.2 µM); in assay [4] it was 1 µg/mL; in assay [5], 0.5 µg/mL; in assay [6], 0.5 µg/mL (≈ 1.1 µM). The “resistance conferred by plasmid pAmpC0” value in assay [3] is recorded as “not”. In assay [7], the “improved resistance conferred by pAmpC13A” value is “improved resistance”.

Consider `CC(=O)OCC1=C(C(=O)O)N2C(=O)[C@@H](NC(=O)Cc3cccs3)[C@H]2SC1` [Cephalothin, cephalothin], for which the MIC was determined as 1020 µg/mL in assay [1]; 16 µg/mL (≈ 40.4 µM) in assay [2]; 1020 µg/mL (≈ 2580 µM) in assay [3]; 512 µg/mL in assay [4]; 512 µg/mL in assay [5]; 512 µg/mL (≈ 1290 µM) in assay [6]. The “resistance conferred by plasmid pAmpC0” value in assay [3] is “confers resistance”. The “clinical resistance conferred by pAmpC13A” value in assay [7] was “clinical resistance”. In addition, the “clinical resistance conferred by pAmpC21B” value in assay [8] is listed as “clinical resistance”.

With `CO/N=C(\C(=O)N[C@@H]1C(=O)N2C(C(=O)O)=C(COC(N)=O)CS[C@H]12)c1ccco1` [Cefuroxime, cefuroxime], the MIC in assay [1] came to 512 µg/mL; in assay [2] it was 16 µg/mL (≈ 37.7 µM); in assay [3], 64 µg/mL (≈ 151 µM); in assay [4], 32 µg/mL; in assay [5], 32 µg/mL; in assay [6], 32 µg/mL (≈ 75.4 µM). In addition, the “resistance conferred by plasmid pAmpC0” value in assay [3] was “confers resistance”. Further, in assay [7], the “clinical resistance conferred by pAmpC13A” value is listed as “clinical resistance”. In addition, the “clinical resistance conferred by pAmpC21B” value in assay [8] is given as “clinical resistance”.

Regarding `C[C@@H](O)[C@H]1C(=O)N2C(C(=O)O)=C(SCCN=CN)C[C@H]12` [Imipenem, imipenem], the MIC in assay [1] came to 0.25 µg/mL; in assay [2], 0.25 µg/mL (≈ 0.835 µM); in assay [3] it was 0.25 µg/mL (≈ 0.835 µM); in assay [4] it was 0.125 µg/mL; in assay [5] it was 0.125 µg/mL; in assay [6] it was 0.125 µg/mL (≈ 0.418 µM).

For `C[C@@H](O)[C@H]1C(=O)N2C(C(=O)O)=C(S[C@@H]3CN[C@H](C(=O)N(C)C)C3)[C@H](C)[C@H]12` [Meropenem, meropenem], the MIC in assay [1] came to 0.0312 µg/mL; in assay [2], 0.00195 µg/mL (≈ 0.00509 µM); in assay [4], 0.0156 µg/mL; in assay [5], 0.0312 µg/mL; in assay [6] it was 0.0156 µg/mL (≈ 0.0407 µM). The “resistance conferred by plasmid pAmpC0” value in assay [3] is given as “not”. Further, the “change in resistance by A663G (T121S) mutation vs wildtype pAmpC0” value in assay [4] was “significantly increase resistance”. Also, the “change in resistance by T869G (L290R) mutation vs wildtype pAmpC0” value in assay [5] is on record as “significantly increase resistance”. Further, the “improved resistance conferred by pAmpC13A” value in assay [7] is “improved resistance”.

`C[C@H]1[C@H](NC(=O)/C(=N\OC(C)(C)C(=O)O)c2csc(N)n2)C(=O)N1S(=O)(=O)O` [Aztreonam, aztreonam]: the MIC turned out to be 16 µg/mL in assay [1]; 0.5 µg/mL (≈ 1.15 µM) in assay [2]; 4 µg/mL (≈ 9.19 µM) in assay [3]; 4 µg/mL in assay [4]; 4 µg/mL in assay [5]; 4 µg/mL (≈ 9.19 µM) in assay [6]. The “resistance conferred by plasmid pAmpC0” value in assay [3] was “not”. Further, in assay [7], the “improved resistance conferred by pAmpC13A” value is reported as “improved resistance”.
